Assays:
hyaluronic acid = assay: Hyaluronic acid production/secretion in cultured human dermal fibroblasts; type: cell-based; settings: compared to an untreated control
Description: In this study, tetradecyl aminobutyroylvalylamino butyric urea trifluoroacetate (SYN-HYCAN™ from Pentapharm/DSM) was replaced with Alpinia galanga leaf extract (HYALUFIX™ GL from BASF). Therefore, the combination of tripeptide-1 (KOLLAREN® from Unipex/Lucas Meyer), Centella asiatica stem cells (CENTELLA ASIATIC STEMS G™ from Ricerche Biotecnologiche), and Alpinia galanga leaf extract (HYALUFIX™ GL from BASF) was tested on skin at various levels in various dermatologically acceptable vehicles. The following includes data concerning these tests. Further, an in vitro assay was performed on Alpinia galanga leaf extract using cultured human dermal fibroblasts.

fibronectin = assay: Secretion of fibronectin; type: cell-based; settings: compared to untreated controls
laminin = assay: Secretion of laminin; type: cell-based; settings: compared to untreated controls
collagen I = assay: Immunofluorescent staining of cultured human fibroblasts for dermal matrix proteins: collagen I; type: cell-based; settings: immunofluorescent antibodies, compared to untreated controls
elastin fibers = assay: Immunofluorescence study of elastin fibers; type: cell-based, human; settings: immunofluorescence studies
collagen III = assay: Immunofluorescent staining of cultured human fibroblasts for dermal matrix proteins: collagen III; type: cell-based; settings: immunofluorescent antibodies, compared to untreated controls

Substance	increase in production of hyaluronic acid secretion (hyaluronic acid) [%]	increase in secretion of fibronectin (fibronectin) [%]	increase in secretion of laminin (laminin) [%]	increase in collagen I (collagen I) [%]	increase in elastin fibers (elastin fibers) [%]	increase in collagen III (collagen III) [%]
Tetradecyl aminobutyroylvalylamino butyric urea trifluoroacetate	64.2					
Tripeptide-1	118	105	85	305	15	105

— patent publication US12485080B2, “Cosmetic compositions” (Mary Kay Inc., priority 2011, dated 2025)
